System: PrP^C in T98G cells
Type: cell-based, human
Settings: read-out: EC50 (μM) ELISA potency, PrP^C in T98G cells

Compared with `CCOC(=O)c1[nH]c(C)c(C(=O)c2ccc(C)cc2)c1C` [IND5672], `CCOC(=O)c1[nH]c2c(c1C)C(=O)CC(c1ccccc1)C2` (stereo not shown) [IND126432] is 4.1-fold lower in EC50: 0.593 µM for the first, 0.144 µM for the second. The second is the more potent here.

`Cc1ccn2c(-c3csc(Nc4ccc(N(C)C)nc4)n3)c(C)nc2c1` [IND9756] and `Cc1nc2sccn2c1-c1csc(Nc2ccc(N(C)C)nc2)n1` [IND126306] are within 1.5-fold of each other in EC50: 0.18 µM for the first, 0.217 µM for the second.

Going from `CCOc1ccc2c(c1)C(C)=CC(C)(C)N2S(=O)(=O)c1ccc(C)cc1` [IND16365] to `COc1ccc(Cl)cc1NS(=O)(=O)c1ccc(N2CCCC2=O)cc1` [IND126331], the EC50 rises from 0.304 µM to 0.684 µM (2.3-fold). The first is the more potent here.

First: CN(C)c1ccc2c(c1)OC(N)=C(C#N)C2c1cccc(F)c1 (stereo not shown) [IND17990]
Second: CN(C)c1ccc2c(c1)OC(N)=C(C#N)C2c1cccs1 (stereo not shown) [IND23846]
The EC50 of the first is 6.8-fold lower: 0.031 µM for the first, 0.21 µM for the second. The first is the more potent here.

Going from `Cc1cc(C)c(S(=O)(=O)NCc2ccncc2)c(C)c1` [IND18762] to `O=C(Nc1ccncc1)C1CCCN1S(=O)(=O)c1ccc2ccccc2c1` (stereo not shown) [IND86287], the EC50 falls from 4.13 µM to 2.65 µM (1.6-fold).

`COC(=O)c1[nH]c2c(c1C)C(=O)CC(c1cccs1)C2` (stereo not shown) [IND73602] and `CCOC(=O)c1[nH]c2c(c1C)C(=O)CC(c1ccccc1Cl)C2` (stereo not shown) [IND126429] are within 1.5-fold of each other in EC50: 0.521 µM for the first, 0.497 µM for the second.

Going from `N#Cc1c(NC(=O)CCc2cccs2)sc2c1CCCC2` [IND82865] to `CCc1nnc(NC(=O)c2ccoc2COc2ccccc2)s1` [IND85692], the EC50 rises from 0.242 µM to 2.28 µM (9.4-fold).

`O=C(Nc1ccc(I)cn1)c1cccc(F)c1` [IND84911] and `COc1ccc(Cl)cc1C(=O)N1CC(=O)Nc2ccccc21` [IND116063] are within 1.5-fold of each other in EC50: 0.55 µM for the first, 0.647 µM for the second.

Compared with `Cc1nc2ncccn2c1-c1csc(Nc2ccc(Cl)cc2)n1` [IND115948], `CCN(CC)c1ccc2c(c1)OC(N)=C(C#N)C2c1ccccc1` (stereo not shown) [IND126322] is 11-fold lower in EC50: 1.85 µM for the first, 0.174 µM for the second. The second is the more potent here.

`COc1ccccc1C(=O)N1CCN(c2ccccc2OC)CC1` [IND116050] was tested, and the EC50 was 0.887 µM.

— US20140329863A1 (priority 2011, published 2014)
